Reference: patent publication US6960611B2, “Sulfonyl-containing 2,3-diarylindole compounds, methods for making same, and methods of use thereof” (Institute of Materia Medica, priority 2002, dated 2005)

Legend:
[1] = tested on: carrageenan-induced foot pad edema; assay: Rat carrageenan-induced foot pad edema assay; assay type: in vivo; conditions: 10 mg/kg oral
Description: Male Sprgue-Dawley rats (190-220 g ) were fasted with free access to water at least 16 h prior experiments. The rats were dosed orally with a 1 ml suspension of test compound in vehicle (0.5% methyl cellulose and 0.025% Tween-20) or with vehicle alone. One hour later a subplantar injection of 0.1 ml of 1% solution of carageenan in 0.9% strile saline was administered to the right hind foot pad. Paw volume was measured with a displacement plethysmometer 2, 3, and 4 h after carrageenan injection.

[2] = biological target: T1, COX-2 (Mus musculus, UniProt Q05769); assay: COX-2 assay: PGE2 release (RIA) from LPS-stimulated mouse peritoneal macrophages; assay type: cell-based, mice; conditions: LPS 1 mg/L 9 h, PGE2 by RIA
T1 construct: endogenous in cells; host or cells: thioglycollate-elicited peritoneal macrophages of male C57BL-6J mice, stimulated with LPS
T1 sequence (Q05769 18-604): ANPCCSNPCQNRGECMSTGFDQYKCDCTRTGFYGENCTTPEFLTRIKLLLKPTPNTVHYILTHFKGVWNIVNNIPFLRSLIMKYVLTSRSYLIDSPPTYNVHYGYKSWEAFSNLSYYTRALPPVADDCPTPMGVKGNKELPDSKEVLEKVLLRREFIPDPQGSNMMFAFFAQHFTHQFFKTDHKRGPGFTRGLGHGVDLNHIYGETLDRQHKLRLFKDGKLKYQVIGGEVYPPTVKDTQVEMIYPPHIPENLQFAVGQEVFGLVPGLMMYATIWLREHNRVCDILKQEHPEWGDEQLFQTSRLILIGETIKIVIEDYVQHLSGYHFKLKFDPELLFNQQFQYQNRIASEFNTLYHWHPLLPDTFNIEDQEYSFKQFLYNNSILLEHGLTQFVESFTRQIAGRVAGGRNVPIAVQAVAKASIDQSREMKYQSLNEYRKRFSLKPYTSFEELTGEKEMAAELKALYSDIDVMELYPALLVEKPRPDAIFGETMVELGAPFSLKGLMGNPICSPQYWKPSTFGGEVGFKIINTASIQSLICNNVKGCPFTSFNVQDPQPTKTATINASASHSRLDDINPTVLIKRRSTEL
Description: Cell culture: Adherent macrophages were harvested from the peritoneal cells of male mice (C57BL-6J, Level 2, from Experiment Animal Center, Academy of Military Medical Science) 3 d after the injection (ip) of brewer thioglycollate medium (5 mL/100 g body weight). […] Cell viability was examined by trypan blue dye exclusion. All incubation procedures were performed with 5% CO2 in humidified air at 37° C.
COX-2 assay: Macrophages were incubated with test compound at different concentrations or solvent (Me2SO) for 1 h and were stimulated with LPS 1 mg/L for 9 h. The amount of PGE2 in supernatants was measured by RIA. The inhibitory ratio was calculated using the same Formula as in COX-1 assay section. Cs, Ct, Cc refer to PGE2 concentration in supernatants of LPS, test compound, and control groups, respectively.
Statistical analysis: Data were expressed as the mean±SD of more than three independent experiments. Dose-inhibitory effect curves were fit through “uphill dose response curves, variable slope” using Prism, GraphPad (version 3.00): [formula]

Compound | IC50 [2] | melting point | inhibitory percentage of edema ([1]; 2 h after carrageenan) | inhibitory percentage of edema ([1]; 3 h after carrageenan) | inhibitory percentage of edema ([1]; 4 h after carrageenan) | edema (paw volume increase) ([1]; 2 h after carrageenan) | edema (paw volume increase) ([1]; 3 h after carrageenan) | edema (paw volume increase) ([1]; 4 h after carrageenan)
2-(4-methylsulfonylphenyl)-3-phenyl-5-methylindole [Example 83] | 0.278 nM | – | 46.1% | 47.1% | 46.1% | – | – | –
Cc1ccc(-c2cc(C(F)(F)F)nn2-c2ccc(S(N)(=O)=O)cc2)cc1 [Celecoxib, reference compound] | – | – | – | 51.6% | 48.0% | 31.1 ± 7.87% | 53.2 ± 12.6% | 48.8 ± 8.11%
NS(=O)(=O)c1ccc(-c2[nH]c3ccccc3c2-c2ccccc2)cc1 [Example 60, 2-(4-aminosulfonylphenyl)-3-phenylindole] | 0.161 nM | 231 to 232 °C | – | 48.3% | 53.9% | 32.5 ± 9.45% | 56.9 ± 16.4% | 43.2 ± 13.9%
CS(=O)(=O)c1ccc(-c2[nH]c3ccccc3c2-c2ccc(Cl)cc2)cc1 [Example 61, 2-(4-methylsulfonylphenyl)-3-(4-chlorophenyl)indole] | 146 nM | 198.5 to 200.5 °C | – | 51.1% | 50.4% | 14.6 ± 7.8% | 30.6 ± 10% | 25.7 ± 10.1%
COc1ccc(-c2c(-c3ccc(S(N)(=O)=O)cc3)[nH]c3ccccc23)cc1 [Example 70, 2-(4-aminosulfonylphenyl)-3-(4-methoxyphenyl)indole] | – | – | – | 44.7% | 38.5% | 21.9 ± 11.8% | 34.6 ± 10.4% | 31.9 ± 11.9%
NS(=O)(=O)c1ccc(-c2[nH]c3ccc(Cl)cc3c2-c2ccc(Cl)cc2)cc1 [Example 74, 2-(4-aminosulfonylphenyl)-3-(4-chlorophenyl)-5-chloroindole] | 0.541 nM | 245 to 247 °C | – | – | – | – | – | –
CS(=O)(=O)c1ccc(-c2[nH]c3ccc(Cl)cc3c2-c2ccccc2)cc1 [Example 76, 2-(4-methylsulfonylphenyl)-3-phenyl-5-chloroindole] | – | 281 to 283 °C | 36.9% | 52.8% | 53.2% | 45 ± 17.9% | 46 ± 15.4% | 37.7 ± 15.6%
CS(=O)(=O)c1ccc(-c2[nH]c3ccc(Cl)cc3c2-c2ccccc2Cl)cc1 [Example 78, 2-(4-methylsulfonylphenyl)-3-(2-chlorophenyl) -5-chloro indole] | 10 nM | 300 to 301.5 °C | – | – | – | – | – | –
CS(=O)(=O)c1ccc(-c2[nH]c3ccc(Br)cc3c2-c2ccccc2)cc1 [Example 82, 2-(4-methylsulfonylphenyl)-3-phenyl-5-bromoindole] | 1.41 nM | 262 to 264 °C | – | – | – | – | – | –
NS(=O)(=O)c1ccc(-c2[nH]c3ccc(Cl)cc3c2-c2cccc(Cl)c2)cc1 [Example 85, 2-(4-aminosulfonylphenyl)-3-(3-chlorophenyl)-5-chloroindole] | – | – | 19.8% | 36.1% | 23.4% | 57.2 ± 13.6% | 62.3 ± 7.2% | 61.7 ± 8.8%
Cc1ccc(-c2[nH]c3ccc(Cl)cc3c2-c2ccc(S(C)(=O)=O)cc2)cc1 [Example 91, 2-(4-methylphenyl)-3-(4-methylsulfonylphenyl)-5-chloroindole] | 1.68 nM | 238 to 240 °C | – | – | – | – | – | –
CS(=O)(=O)c1ccc(-c2c(-c3ccc(O)cc3)[nH]c3ccc(Cl)cc23)cc1 [Example 95, 2-(4-hydroxyphenyl)-3-(4-methylsulfonylphenyl)-5-chloroindole] | – | 271 to 273 °C | – | – | – | – | – | –
NS(=O)(=O)c1ccc(-c2[nH]c3ccccc3c2-c2ccc(O)cc2)cc1 [Example 96, 2-(4-aminosulfonylphenyl)-3-(4-hydroxyphenyl)indole] | 6.44 nM | 241 to 243 °C | – | – | – | – | – | –
CC(=O)NS(=O)(=O)c1ccc(-c2[nH]c3ccccc3c2-c2ccccc2)cc1 [Example 97, 2-(N-acetamide-sulfonylphenyl)-3-phenylindole] | 0.184 nM | 221 to 222 °C | – | – | – | – | – | –
CS(=O)(=O)c1ccc(C2=C(c3ccccc3)C(=O)OC2)cc1 [Rofecoxib, reference compound] | – | – | 29.5% | 51.6% | 52.6% | 50.3 ± 5.1% | 47.2 ± 2.4% | 38.2 ± 6.7%

Further lines, with some results ahead:

IC50 [2] | melting point | Compound | inhibitory percentage of edema ([1]; 2 h after carrageenan) | inhibitory percentage of edema ([1]; 3 h after carrageenan) | inhibitory percentage of edema ([1]; 4 h after carrageenan) | edema (paw volume increase) ([1]; 2 h after carrageenan) | edema (paw volume increase) ([1]; 3 h after carrageenan) | edema (paw volume increase) ([1]; 4 h after carrageenan)
3.86 nM | 221 to 222 °C | CS(=O)(=O)c1ccc(-c2[nH]c3ccccc3c2-c2ccccc2)cc1 [Example 59, 2-(4-methylsulfonylphenyl)-3-phenylindole] | – | 55.8% | 56.1% | 40.8 ± 15.8% | 48.6 ± 14% | 41.2 ± 17.4%
0.0684 nM | 293 to 295 °C | Cc1ccc(-c2c(-c3ccc(S(N)(=O)=O)cc3)[nH]c3ccccc23)cc1 [Example 66, 2-(4-aminosulfonylphenyl)-3-(4-methylphenyl)indole] | – | – | – | – | – | –
1.46 nM | 251 to 253 °C | Cc1ccc(-c2c(-c3ccc(S(N)(=O)=O)cc3)[nH]c3ccccc23)cc1C [Example 68, 2-(4-aminosulfonylphenyl)-3-(3,4-dimethylphenyl)indole] | – | – | – | – | – | –
– | 224 to 226 °C | CS(=O)(=O)c1ccc(-c2[nH]c3ccccc3c2-c2ccc(F)cc2)cc1 [Example 71, 2-(4-methylsulfonylphenyl)-3-(4-fluorophenyl)indole] | – | 11.1% | 18.4% | 44 ± 21.1% | 54.4 ± 9.8% | 49.1 ± 19%
85.1 nM | 281 to 283 °C | CS(=O)(=O)c1ccc(-c2[nH]c3ccc(Cl)cc3c2-c2ccc(Cl)cc2)cc1 [Example 73, 2-(4-methylsulfonylphenyl)-3-(4-chlorophenyl)-5-chloroindole] | – | – | – | – | – | –
100 nM | – | NS(=O)(=O)c1ccc(-c2[nH]c3ccc(Cl)cc3c2-c2ccccc2Cl)cc1 [Example 77, 2-(4-aminosulfonylphenyl)-3-(2-chlorophenyl) -5-chloro indole] | – | – | – | – | – | –
5 nM | 310 to 312 °C | NS(=O)(=O)c1ccc(-c2[nH]c3ccc(Br)cc3c2-c2ccccc2)cc1 [Example 81, 2-(4-aminosulfonylphenyl)-3-phenyl-5-bromoindole] | – | – | – | – | – | –
0.801 nM | 254 to 257 °C | CS(=O)(=O)c1ccc(-c2[nH]c3ccc(Cl)cc3c2-c2cccc(Cl)c2)cc1 [Example 86, 2-(4-methylsulfonylphenyl)-3-(3-chlorophenyl)-5-chloroindole] | – | – | – | – | – | –
1.48 nM | 173 to 175 °C | CS(=O)(=O)c1ccc(-c2[nH]c3ccc(Cl)cc3c2-c2ccc(S(C)(=O)=O)cc2)cc1 [Example 88, 2-(4-methylsulfonylphenyl)-3-(4-methylsulfonylphenyl)-5-chloroindole] | – | – | – | – | – | –
